The subject of the assay is purified human CD4+ T cells. Put plainly: IL-21 production in IC-treated CD4+ T cells with Syk inhibitor. It counts as cell-based. As to conditions: P505 10 nM; cells producing IL-21 from IC treatment; FIG. 4F (A).

“Also recorded” adds a separate entry of the source.

Consider `NC(=O)c1cnc(N[C@@H]2CCCC[C@@H]2N)nc1Nc1cccc(-n2nccn2)c1` [P505], for which the IL-21 production entry is recorded as “IL-21 production is blocked; also recorded: inhibits IL-21 production”.
